The values below come from patent publication US20210130346A1, “Bromodomain Inhibitors” (AbbVie Inc., priority 2017, published 2021).

One assay has as its target BRD4 (BDI_K57-E168) (Homo sapiens, UniProt O60885). Briefly: TR-FRET bromodomain binding assay, BRD4 first bromodomain (BDI). Conditions: mean Ki; 12 nM His tagged BRD4 (BDI_K57-E168), 100 nM Alexa647 probe; Ki calculated from IC50, probe Kd and probe concentration.
The next assay concerns SKM-1 xenograft tumors. Briefly: Growth inhibition of SKM-1 xenograft tumors implanted in mice. Conditions: SCID mice. It counts as in vivo, female SCID mice. The protocol:
The effect of compounds of the examples to inhibit the growth of SKM-1 xenograft tumors implanted in mice was evaluated. A suspension of cancer cells (5×10^6 per 0.1 mL) prepared in RPMI culture medium (Invitrogen, Carlsbad, Calif.) was diluted 1:1 with a solution of Matrigel™ (BD Biosciences, Franklin Lakes, N.J.) and inoculated subcutaneously into the right hind flank of female SCID (Charles River Labs) mice. Randomization into treatment and vehicle control groups (8/group) occurred when the mean tumor volume reached approximately 250 mm^3. Example 3 was formulated in 10% ethanol, 30% PEG 400, 60% Phosol-50PG. Example 34 was formulated as a nanosuspension (2% low viscosity hydroxypropylcellulose polymer/0.2% sodium dodecyl sulfate in water). Administration of compound or vehicle was initiated on the day following randomization and continued for […]. Tumors were measured twice a week throughout the treatment period using a pair of calipers and tumor volumes were calculated according to the formula V=L×W^2/2 (V: volume, mm^3; L: length, mm. W: width, mm). Tumor growth inhibition was calculated based on the mean tumor volume measured on the first day that the mean volume of the vehicle group exceeded 2000 mm^3 according to the formula: % TGI=100−(100×(mean tumor volume of treatment group/mean tumor volume of control group))

The structures appear in SMILES notation.

Consider `CN1C(=O)[C@]2(C[C@@H]2c2cn(C)c(=O)c3[nH]c(-c4cnn(C)c4)cc23)c2ccccc21` [Example 34, (1S,2R)-1′-methyl-2-[6-methyl-2-(1-methyl-1H-pyrazol-4-yl)-7-oxo-6,7-dihydro-1H-pyrrolo[2,3-c]pyridin-4-yl]spiro[cyclopropane-1,3′-indol]-2′(1H)-one], for which the Ki (commonly the dissociation constant of the complex between target and ligand, obtained from inhibition or displacement) at BRD4 (BDI_K57-E168) was 0.441 µM. The “% TGI” value with SKM-1 xenograft tumors (dose 38 mg/kg/d, formulated as a nanosuspension) is listed as 42%; with SKM-1 xenograft tumors (dose 75 mg/kg/d, formulated as a nanosuspension) it was 74%.

Consider `CN1C(=O)[C@]2(C[C@@H]2c2cn(C)c(=O)c3[nH]c(C(=O)NC4CC4)cc23)c2ccccc21` [Example 3, N-cyclopropyl-6-methyl-4-[(1S,2R)-1′-methyl-2′-oxo-1′,2′-dihydrospiro[cyclopropane-1,3′-indol]-2-yl]-7-oxo-6,7-dihydro-1H-pyrrolo[2,3-c]pyridine-2-carboxamide], for which the Ki on BRD4 (BDI_K57-E168) was 3.25 µM. Moreover, the “% TGI” value is on record as 27% in the assay with SKM-1 xenograft tumors (dose 5 mg/kg/d, formulated in 10% ethanol, 30% PEG 400, 60% Phosol-50PG); 33% in the assay on SKM-1 xenograft tumors (dose 15 mg/kg/d, formulated in 10% ethanol, 30% PEG 400, 60% Phosol-50PG); 43% in the assay with SKM-1 xenograft tumors (dose 45 mg/kg/d, formulated in 10% ethanol, 30% PEG 400, 60% Phosol-50PG); 58% in the assay with SKM-1 xenograft tumors (dose 100 mg/kg/d, formulated in 10% ethanol, 30% PEG 400, 60% Phosol-50PG); 52% in the assay with SKM-1 xenograft tumors (dose 150 mg/kg/d, formulated in 10% ethanol, 30% PEG 400, 60% Phosol-50PG).
